Test results published in US10793580B2, “Substituted pyrazoloazepin-8-ones and their use as phosphodiesterase inhibitors” (LEO Pharma A/S, priority 2016, dated 2020).

target: human PDE4D catalytic domain (Homo sapiens (Human), UniProt Q08499); test: PDE4 Assay (TR-FRET, FAM-cAMP cleavage); assay type: biochemical; conditions: Table 16, Examples 277-296; read-out: PDE4 IC50 range
How it was run: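 Readout is Tb-to-FAM time-resolved FRET after nanoparticle capture of AMP, the product of cleaving a cAMP/FAM-cAMP mixture by PDE4D catalytic domain (S380-L740) in the presence of titrated compound. Values are IC50 ranges in nM: concentration halving substrate cleavage relative to controls.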

Chain of human PDE4D catalytic domain (Q08499 380-740): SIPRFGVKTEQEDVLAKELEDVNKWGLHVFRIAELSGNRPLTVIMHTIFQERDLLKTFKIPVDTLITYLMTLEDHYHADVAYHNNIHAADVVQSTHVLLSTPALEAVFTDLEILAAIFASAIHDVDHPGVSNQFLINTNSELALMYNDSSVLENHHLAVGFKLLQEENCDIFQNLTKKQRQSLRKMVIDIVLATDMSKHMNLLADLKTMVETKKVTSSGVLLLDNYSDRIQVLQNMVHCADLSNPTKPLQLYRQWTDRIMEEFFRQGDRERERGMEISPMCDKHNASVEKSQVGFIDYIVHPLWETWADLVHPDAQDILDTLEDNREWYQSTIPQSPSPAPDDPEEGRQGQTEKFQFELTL

| Compound | IC50 |
| --- | --- |
| CCn1nc(C[C@@H](C)COC(=O)c2cscn2)c2c1C(=O)NCC1(CCOCC1)C2 [Example 285, [(2R)-3-(1-ethyl-8-oxo-spiro[6,7-dihydro-4H-pyrazolo[3,4-c]azepine-5,4′-tetrahydropyran]-3-yl)-2-methyl-propyl] thiazole-4-carboxylate] | < 0.1 µM |
| CCn1nc(C[C@@H](C)COC(=O)c2cnc(C)s2)c2c1C(=O)NCC1(CCOCC1)C2 [Example 291, [(2R)-3-(1-ethyl-8-oxo-spiro[6,7-dihydro-4H-pyrazolo[3,4-c]azepine-5,4′-tetrahydropyran]-3-yl)-2-methyl-propyl] 2-methylthiazole-5-carboxylate] | < 0.1 µM |

same assay, conditions: Table 17, Examples 297-316; read-out: PDE4 IC50 range

| Compound | IC50 |
| --- | --- |
| CCn1nc(CC(C)(C)COC(=O)C2CCN(C(C)=O)CC2)c2c1C(=O)NCC1(CCOCC1)C2 [Example 314, [3-(1-ethyl-8-oxo-spiro[6,7-dihydro-4H-pyrazolo[3,4-c]azepine-5,4′-tetrahydropyran]-3-yl)-2,2-dimethyl-propyl] 1-acetylpiperidine-4-carboxylate] | < 0.1 µM |

same assay, conditions: human PDE4D catalytic domain (UniProt Q08499 [S380-L740]); 50% inhibition of substrate cleavage; read-out: PDE4 IC50 range

| Compound | IC50 |
| --- | --- |
| CCn1nc(CC(C)(C)COC(=O)c2cccc(S(=O)(=O)CC)c2)c2c1C(=O)NCC1(CCOCC1)C2 [Example 204, [3-(1-ethyl-8-oxo-spiro[6,7-dihydro-4H-pyrazolo[3,4-c]azepine-5,4′-tetrahydropyran]-3-yl)-2,2-dimethyl-propyl] 3-ethylsulfonylbenzoate] | < 0.1 µM |
| CCn1nc(CCCOC(=O)c2ccc(F)cc2)c2c1C(=O)NCC1(CCOCC1)C2 [Example 10, 3-(1-ethyl-8-oxo-spiro[6,7-dihydro-4H-pyrazolo[3,4-c]azepine-5,4′-tetrahydropyran]-3-yl)propyl 4-fluorobenzoate] | < 0.1 µM |
| CCn1nc(C[C@@H](C)COC(=O)c2ccc(S(=O)(=O)N3CCOCC3)cc2)c2c1C(=O)NCC1(CCOCC1)C2 [Example 165, [(2R)-3-(1-ethyl-8-oxo-spiro[6,7-dihydro-4H-pyrazolo[3,4-c]azepine-5,4′-tetrahydropyran]-3-yl)-2-methyl-propyl] 4-morpholinosulfonylbenzoate] | < 0.1 µM |
| CCn1nc(C[C@@H](C)COC(=O)c2ccc(C(C)=O)cc2)c2c1C(=O)NCC1(CCOCC1)C2 [Example 153, [(2R)-3-(1-ethyl-8-oxo-spiro[6,7-dihydro-4H-pyrazolo[3,4-c]azepine-5,4′-tetrahydropyran]-3-yl)-2-methyl-propyl] 4-acetylbenzoate] | < 0.1 µM |
| CCn1nc(CCCCOC(=O)c2cc(C)nc(C)c2)c2c1C(=O)NCC1(CCOCC1)C2 [Example 273, 4-(1-ethyl-8-oxo-spiro[6,7-dihydro-4H-pyrazolo[3,4-c]azepine-5,4′-tetrahydro-pyran]-3-yl)butyl 2,6-dimethylpyridine-4-carboxylate] | < 0.1 µM |
| CCn1nc(CCCOC(=O)c2cncs2)c2c1C(=O)NCC1(CCOCC1)C2 [Example 245, 3-(1-ethyl-8-oxo-spiro[6,7-dihydro-4H-pyrazolo[3,4-c]azepine-5,4′-tetrahydropyran]-3-yl)propyl thiazole-5-carboxylate] | < 0.1 µM |
| CCn1nc(CCCCOC(=O)c2ccc(C(=O)N(C)C)cc2)c2c1C(=O)NCC1(CCOCC1)C2 [Example 129, 4-(1-ethyl-8-oxo-spiro[6,7-dihydro-4H-pyrazolo[3,4-c]azepine-5,4′-tetrahydropyran]-3-yl)butyl 4-(dimethyl-carbamoyl)benzoate] | < 0.1 µM |
| CCn1nc(CCCOC(=O)c2ccc(S(=O)(=O)N3CCOCC3)cc2)c2c1C(=O)NCC1(CCOCC1)C2 [Example 100, 3-(1-ethyl-8-oxo-spiro[6,7-dihydro-4H-pyrazolo[3,4-c]azepine-5,4′-tetrahydropyran]-3-yl)propyl 4-morpholinosulfonylbenzoate] | < 0.1 µM |
| CCn1nc(C[C@@H](C)COC(=O)c2cccc(C(=O)NC)c2)c2c1C(=O)NCC1(CCOCC1)C2 [Example 179, [(2R)-3-(1-ethyl-8-oxo-spiro[6,7-dihydro-4H-pyrazolo[3,4-c]azepine-5,4′-tetrahydropyran]-3-yl)-2-methyl-propyl] 3-(methylcarbamoyl)benzoate] | < 0.1 µM |
